Literature values as cited in patent US9445940B2, “System and method for inducing hypothermia with control and determination of catheter pressure” (Zoll Circulation, Inc., priority 2003, dated 2016).

System: shivering threshold
Details: stated as believed, no experiment by the applicant

CCOC(=O)C1(c2ccccc2)CCN(C)CC1 [Meperidine]
decrease of shivering threshold relative to vasoconstriction threshold: twice as much as the vasoconstriction threshold
